According to EP0939136A1, “Assay for predicting the angiographic response to lipid-lowering therapy in patients” (Academisch Ziekenhuis bij de Universiteit van Amsterdam, priority 1998, dated 1999):

Experiments:
Format in all cases: in vivo, male patients
[1] = REGRESS trial: computer-assisted quantitative coronary angiography (MSD, MOD); conditions: for MOD decrease: median (IQR) / MSD decrease: mean (SD): 40 mg/day, two years, larger figure = more progression of atherosclerosis
Protocol: (§1) 807 Male patients participating in the Regression Growth Evaluation Statin Study (REGRESS), which has previously been described in detail (Kuivenhoven et al., Arterioscler. Thromb. Vasc. Biol. 17:560-568 (1997)) were prospectively studied. In short, study participants were required to have at least one coronary artery with a stenosis off >50 percent as assessed by coronary angiography, a plasma total cholesterol concentration of 155-310 mg per deciliter (4 to 8 millimole per liter) and triglycerides of 350 mg per deciliter(< 4 millimole per liter). Patients were subsequently randomized to treatment with pravastatin sodium (Pravachol®; 40 mg/day ) or to placebo for a period of two years. The placebo group contained 396 patients and the group treated with pravastatin contained 411 patients.
Computer-assisted quantitative coronary angiography was carried out at the start and at the end of the study. The two following primary measures of outcome were used: (a) the change in the average Mean Segment Diameter (MSD) per patient (also known as Mean Lumen Diameter) reflecting diffuse changes of atherosclerosis, and (b) the change in the average Minimum Obstruction Diameter […]) which reflects the focal change of atherosclerosis. Given these definitions, one should note that a greater decrease in MSD and/or MOD reflects more progression of coronary atherosclerosis.
(§2) The differences between carriers of the three TaqIB genotypes (i.e. B1B1, B1B2, and B2B2) were tested using one-way ANOVA or Pearson's Chi-square test. Changes in lipids, lipoproteins and angiographic parameters during the trial period were quantified with means and standard deviations, and the differences within the two medication groups were tested using one-way covariance analysis with baseline levels as covariates.
The interaction between the three CETP TaqIB genotypes and medication (placebo/pravastatin) was tested using the interaction test of two-way covariance analysis. It was checked whether the above interaction between genotype and medication was dependent of baseline HDL cholesterol concentration, changes in HDL during the trial, baseline MSD, baseline MOD, and each of hepatic lipase or lipoprotein lipase activity by using these as covariates in two-way covariance analysis. The latter analysis was also carried out to test if the significant differences in decrease in either MSD or MOD as identified amongst the TaqIB subgroups in the placebo group, were dependent on the above parameters.

[2] = REGRESS trial: events (death and myocardial infarction); conditions: 40 mg/day, two years
Protocol: as §1
Differences in rate of events between genotypes were analyzed with Pearson Chi-square tests within the medication groups, and the interaction between genotype and medication with logistic regression. Within each of the patient groups, the Hardy-Weinberg equilibrium was tested by means of gene counting and χ^2 analysis. Throughout, a P value of 0.05 was interpreted as representing a statistically significant difference. All statistical analyses were carried out with the Statistical Analysis System (SAS, version 6.1, SAS Institute, Cari, NC) and adapted from the EGRET Manual, (Statistical and Epidemiological Research Corporation, 1991, Seattle, Washington, USA).
Abbreviations: MSD = mean segment Diameter; MOD = minimum obstruction diameter (Note: A larger figure for either a decrease in mean segment diameter (MSD) or minimum obstruction diameter (MOD) indicates more progression of atherosclerosis). SD = standard deviation; IQR = interquartile range; * P value of covariance analysis of the change measures with baseline values as covariate, or chi-square test (where appropriate), comparing the three CETP-TaqIB genotypes; ^† P value of the interaction test of the interaction between treatment (placebo/pravastatin) and the CETP TaqIB genotype (B1B1-B1B2-B2B2) of covariance analysis with baseline values as covariate or of logistic regression, where appropriate. P values while comparing TaqIB subgroup of the placebo group with the pravastatin group: ^‡ P<0.001; ^§ P<0.38; ^¶ P<0.30; ^¥ P<0.002; ** P<0.01; ^†† P<0.48. ? Events are defined as death and myocardial infarction. For conversion from mg.dL^-1 to mmol.L^-1 for total cholesterol, LDL cholesterol and HDL cholesterol levels, multiply by factor 0.02586. For conversion of triglyceride levels from mg.dL^-1 to mmol.L^-1, use 0.01129. [formula] [formula] [formula]

CETP = assay: Plasma CETP concentration by solid phase radioimmunoassay; conditions: 68 pravastatin-treated subjects, P<0.001
Protocol: as §1
Plasma lipids and lipoproteins were measured using standard techniques (Groenemeyer et al., Circulation 95:2628-2653 (1997)). Due to a lack of sufficient aliquots of plasma, CETP concentrations were determined in 237 patients at baseline, and in only 68 pravastatin-treated subjects at the end of the trial. […]

[3] = REGRESS trial: in-trial changes in plasma lipids and lipoproteins; conditions: 40 mg/day, two years
Protocol: as §1
Plasma lipids and lipoproteins were measured using standard techniques (Groenemeyer et al., Circulation 95:2628-2653 (1997)). Due to a lack of sufficient aliquots of plasma, CETP concentrations were determined in 237 patients at baseline, and in only 68 pravastatin-treated subjects at the end of the trial. These measurements were performed by solid phase radioimmunoassay using recombinant human protein (provided by Dr. A.Tall; Columbia University, New York) as standard and a CETP monoclonal antibody, TP2 (produced by Dr. R. Milne; University of Ottawa Heart Institute; Ottawa, McPherson et al., Arterioscler. Thromb 11:797-804 (1991). In addition, the lipase and lipoprotein lipase activities were measured as reported (Groenemeyer et al., supra).
as §2

[4] = CETP TaqIB genotype B1B1 (n=136)
[5] = CETP TaqIB genotype B1B2 (n=212)
[6] = CETP TaqIB genotype B2B2 (n=63)

Compound: CC[C@H](C)C(=O)O[C@H]1C[C@H](O)C=C2C=C[C@H](C)[C@H](CC[C@@H](O)C[C@@H](O)CC(=O)O)[C@H]21 [Pravastatin, pravastatin sodium]
- progression of coronary atherosclerosis compared with counterparts in the placebo group ([1]; B2B2 homozygotes, end of the study): statistically non-significant larger progression
- MOD decrease: median (IQR) [1, 4]: 0.01 (.19) mm
- MSD decrease: mean (SD) [1, 4]: 0.05 (.16) mm
- MOD decrease: median (IQR) [1, 5]: 0.04 (.21) mm
- MSD decrease: mean (SD) [1, 5]: 0.07 (.20) mm
- MOD decrease: median (IQR) [1, 6]: 0.04 (.22) mm
- MSD decrease: mean (SD) [1, 6]: 0.09 (.16) mm
- progression of coronary atherosclerosis compared with counterparts in the placebo group ([1]; carriers of one B1 allele (B1B2), MOD, P<0.01): significantly less focal atherosclerosis
- progression of coronary atherosclerosis compared with counterparts in the placebo group ([1]; carriers of two B1 alleles (B1B1), smaller decreases of MSD and MOD (P<0.001, P<0.002)): significantly less progression of coronary atherosclerosis
- Events (yes/no): (%) [2, 4]: 2.9%
- Events (yes/no): n [2, 4]: 4
- Events (yes/no): (%) [2, 5]: 1.9%
- Events (yes/no): n [2, 5]: 4
- Events (yes/no): (%) [2, 6]: 0.0%
- Events (yes/no): n [2, 6]: 0
- plasma CETP concentration (CETP; end of the trial (baseline 2.03±0.53)): 1.71±0.46 µg per milliliter
- reduction in plasma CETP concentrations (CETP; end of the trial compared with baseline): 16%
- HDL cholesterol incr.: mean (SD) [3, 4]: 4.3 (6.2) mg.dL^-1
- LDL cholesterol red.: mean (SD) [3, 4]: 56.8 (26.7) mg.dL^-1
- Total cholesterol red.: mean (SD) [3, 4]: 53.8 (32.1) mg.dL^-1
- Triglyceride red.: ln(g.mean) (CV) [3, 4]: 7.1 (32.8) mg.dL^-1
- HDL cholesterol incr.: mean (SD) [3, 5]: 3.9 (7.0) mg.dL^-1
- LDL cholesterol red.: mean (SD) [3, 5]: 49.5 (29) mg.dL^-1
- Total cholesterol red.: mean (SD) [3, 5]: 48.3 (32.5) mg.dL^-1
- Triglyceride red.: ln(g.mean) (CV) [3, 5]: 7.1 (37.2) mg.dL^-1
- HDL cholesterol incr.: mean (SD) [3, 6]: 3.5 (6.6) mg.dL^-1
- LDL cholesterol red.: mean (SD) [3, 6]: 56.5 (33.6) mg.dL^-1
- Total cholesterol red.: mean (SD) [3, 6]: 54.1 (35.2) mg.dL^-1
- Triglyceride red.: ln(g.mean) (CV) [3, 6]: 5.3 (38.1) mg.dL^-1
